Experimental data taken from US6461997B1, “Triazole sulfones having herbicidal activity” (Monsanto Technology LLC, priority 1999, dated 2002).

How the values were obtained:
[1] = test system: LAMPU (purple deadnettle); assay: Pre-plant incorporated (PPI) herbicidal activity, cool season; type: in vivo, Lamium purpureum; details: for PPI activity GR80, LAMPU: pre-plant incorporated, lowest tested rate with 80% or greater inhibition, about 14 days
Experimental: (§1) In another set of tests, the pre-plant incorporated (PPI) activity of compounds of this invention was evaluated on the same species as for the pre-emergence tests described above. In the PPI tests the following procedure, designed to simulate PPI application, was used.
(§2) A pre-prepared topsoil mixture (described above) was placed in a pot and compacted to a depth of 1.0 to 1.25 cm from the top of the pot. Seeds of each of several monocotyledonous and dicotyledonous annual plant species were placed on top of the soil. A sufficient quantity of soil to cover the seeds and level fill the pot was weighed into an open container. A known amount of the test compound was dissolved or suspended in an organic solvent and applied by spraying to this cover soil. The cover soil was thoroughly mixed to distribute the test compound throughout the cover soil, and was then applied as a cover layer over the seeds. Untreated soil was used as a cover layer for control pots. After treatment the plants were placed in a greenhouse where they received 0.64 cm of overhead irrigation. All subsequent watering consisted of a light overhead mist and/or subirrigation as needed for germination and growth. Tables 9 and 10 below relate to warm season plant species which were placed after pre-emergence treatment in a greenhouse with a 30/21° C. day/night temperature regime. Tables 11 and 12 below relates to cool season plant species placed after pre-emergence treatment in a greenhouse or growth chamber with an 18/13° C. day/night temperature regime. Only the compounds of Examples 1, 6, 8, 11, 13 and 15-20 were included in PPI tests.
(§3) Approximately 14 days after planting and treating, the plants were observed and herbicidal efficacy recorded as percent inhibition by comparison with untreated plants.

LOLMG (annual ryegrass) = assay: Pre-emergence herbicidal activity, cool season; type: in vivo, Lolium multiflorum; details: GR80 = lowest tested rate (300, 100, 30, 10 g/ha) with 80% or greater inhibition; approx. 14 days after treating; 18/13° C.
How it was run: (§4)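 Seeds sown in sterilised fertilised topsoil received surface-applied compound in 50:50 acetone/water, typically at 300, 100, 30 and 10 g/ha, then greenhouse-grown at 30/21° C (warm-season species) or 18/13° C (cool-season species). Percent inhibition versus untreated plants was scored at about 14 days, giving GR80; an asterisk marks activity short of 80% at the top rate.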

KCHSC (kochia) = assay: Pre-plant incorporated (PPI) herbicidal activity, cool season; type: in vivo, Kochia scoparia; details: for inhibition at 10 g/ha / inhibition at 30 g/ha / inhibition at 100 g/ha / inhibition at 300 g/ha / inhibition at 900 g/ha: Bassia scoparia, weed, PPI application, read-out: Percent inhibition KCHSC
Experimental: as §1, §2, §3

SETVI (green foxtail) = assay: as above; type: in vivo, Setaria viridis; details: for inhibition at 10 g/ha / inhibition at 30 g/ha / inhibition at 100 g/ha / inhibition at 300 g/ha / inhibition at 900 g/ha: Setaria viridis, weed, PPI application, read-out: Percent inhibition SETVI; for PPI activity GR80, SETVI: pre-plant incorporated, lowest tested rate with 80% or greater inhibition, about 14 days
Experimental: as §1, §2, §3

AMARE (redroot pigweed) = assay: Pre-emergence herbicidal activity, warm season; type: in vivo, Amaranthus retroflexus; details: GR80 = lowest tested rate (300, 100, 30, 10 g/ha) with 80% or greater inhibition; approx. 14 days after treating; 30/21° C.
How it was run: as §4

[2] = test system: VERPE (creeping speedwell); assay: Pre-plant incorporated (PPI) herbicidal activity, cool season; type: in vivo, Veronica persicaria; details: for PPI activity GR80, VERPE: pre-plant incorporated, lowest tested rate with 80% or greater inhibition, about 14 days; for inhibition at 10 g/ha / inhibition at 30 g/ha / inhibition at 100 g/ha / inhibition at 300 g/ha / inhibition at 900 g/ha: weed, PPI application, read-out: Percent inhibition VERPE
Experimental: as §1, §2, §3

ABUTH (velvetleaf) [3] = assay: Pre-emergence herbicidal activity, warm season; type: in vivo, Abutilon theophrasti; details: GR80 = lowest tested rate (300, 100, 30, 10 g/ha) with 80% or greater inhibition; approx. 14 days after treating; 30/21° C.
How it was run: as §4

[4] = test system: AGSST (creeping bentgrass); assay: Pre-emergence herbicidal activity, cool season; type: in vivo, Agrostis stolonifera; details: GR80 = lowest tested rate (300, 100, 30, 10 g/ha) with 80% or greater inhibition; approx. 14 days after treating; 18/13° C.
How it was run: as §4

[5] = test system: GALAP (catchweed bedstraw); assay: Pre-plant incorporated (PPI) herbicidal activity, cool season; type: in vivo, Galium aparine; details: for inhibition at 10 g/ha / inhibition at 30 g/ha / inhibition at 100 g/ha / inhibition at 300 g/ha / inhibition at 900 g/ha: Galium aparine, weed, PPI application, read-out: Percent inhibition GALAP; for PPI activity GR80, GALAP: pre-plant incorporated, lowest tested rate with 80% or greater inhibition, about 14 days
Experimental: as §1, §2, §3

[6] = test system: CIRAR (canada thistle (seedling)); assay: Pre-plant incorporated (PPI) herbicidal activity, warm season; type: in vivo, Cirsium arvense; details: GR80 = lowest tested rate with 80% or greater inhibition, approx. 14 days after treating, 30/21° C.
Experimental: as §1, §2, §3

ABUTH (velvetleaf) [7] = assay: as above; type: in vivo, Abutilon theophrasti; details: for inhibition at 10 g/ha / inhibition at 30 g/ha / inhibition at 100 g/ha / inhibition at 300 g/ha / inhibition at 900 g/ha: Abutilon theophrasti, PPI application, read-out: Percent inhibition ABUTH; for PPI activity (GR80) ABUTH: pre-plant incorporated, GR80 = lowest tested rate with 80% or greater inhibition, approx. 14 days after treating, 30/21° C.
Experimental: as §1, §2, §3

DATST (jimsonweed) = assay: Pre-emergence herbicidal activity, warm season; type: in vivo, Datura stramonium; details: GR80 = lowest tested rate (300, 100, 30, 10 g/ha) with 80% or greater inhibition; approx. 14 days after treating; 30/21° C.
How it was run: as §4

[8] = Lamium purpureum, weed, PPI application, read-out: Percent inhibition LAMPU

C=CCC(F)(F)S(=O)(=O)c1ncn(C(=O)N(CC)CC)n1 [Example 17, 1-(N,N-diethylcarbamoyl)-3-[(1,1-difluoro-3-butenyl)sulfonyl]-1,2,4-triazole]
inhibition at 10 g/ha [1, 8]: 100% | inhibition at 30 g/ha [1, 8]: 100% | inhibition at 100 g/ha ([1]; Lamium purpureum, weed, PPI application, 100 g/ha, read-out: Percent inhibition LAMPU): 100% | inhibition at 300 g/ha [1, 8]: 100% | inhibition at 900 g/ha [1, 8]: 100% | PPI activity GR80, LAMPU [1]: 30 g/ha | Pre-emergence activity (GR80) LOLMG (LOLMG (annual ryegrass)): 100 g/ha | inhibition at 10 g/ha (KCHSC (kochia)): 70% | inhibition at 30 g/ha (KCHSC (kochia)): 100% | inhibition at 100 g/ha (KCHSC (kochia)): 100% | inhibition at 300 g/ha (KCHSC (kochia)): 100% | inhibition at 900 g/ha (KCHSC (kochia)): 100% | PPI activity GR80, KCHSC (KCHSC (kochia); pre-plant incorporated, lowest tested rate with 80% or greater inhibition, about 14 days): 30 g/ha | inhibition at 10 g/ha (SETVI (green foxtail)): 40% | inhibition at 30 g/ha (SETVI (green foxtail)): 70% | inhibition at 100 g/ha (SETVI (green foxtail)): 70% | inhibition at 300 g/ha (SETVI (green foxtail)): 100% | inhibition at 900 g/ha (SETVI (green foxtail)): 100% | PPI activity GR80, SETVI (SETVI (green foxtail)): 30 g/ha | Pre-emergence activity (GR80) AMARE (AMARE (redroot pigweed)): 300 g/ha | PPI activity GR80, VERPE [2]: 10 g/ha | inhibition at 10 g/ha [2]: 0% | inhibition at 30 g/ha [2]: 0% | inhibition at 100 g/ha [2]: 0% | inhibition at 300 g/ha [2]: 90% | inhibition at 900 g/ha [2]: 100% | Pre-emergence activity (GR80) ABUTH (ABUTH (velvetleaf) [3]): 300 g/ha | Pre-emergence activity (GR80) AGSST [4]: 100 g/ha | inhibition at 10 g/ha [5]: 0% | inhibition at 30 g/ha [5]: 60% | inhibition at 100 g/ha [5]: 40% | inhibition at 300 g/ha [5]: 80% | inhibition at 900 g/ha [5]: 100% | PPI activity GR80, GALAP [5]: 100 g/ha | PPI activity (GR80) CIRAR [6]: 300 g/ha | inhibition at 10 g/ha (ABUTH (velvetleaf) [7]): 0% | inhibition at 30 g/ha (ABUTH (velvetleaf) [7]): 0% | inhibition at 100 g/ha (ABUTH (velvetleaf) [7]): 0% | inhibition at 300 g/ha (ABUTH (velvetleaf) [7]): 40% | inhibition at 900 g/ha (ABUTH (velvetleaf) [7]): 100% | PPI activity (GR80) ABUTH (ABUTH (velvetleaf) [7]): 100 g/ha

C=C(Br)CC(F)(F)S(=O)(=O)c1ncn(C(=O)N(CC)CC)n1 [Example 19]
inhibition at 10 g/ha [1, 8]: 0% | inhibition at 30 g/ha [1, 8]: 0% | inhibition at 300 g/ha [1, 8]: 0% | inhibition at 900 g/ha [1, 8]: 99% | PPI activity GR80, LAMPU [1]: 100 g/ha | Pre-emergence activity (GR80) LOLMG (LOLMG (annual ryegrass)): 300 g/ha | inhibition at 10 g/ha (KCHSC (kochia)): 0% | inhibition at 30 g/ha (KCHSC (kochia)): 20% | inhibition at 100 g/ha (KCHSC (kochia)): 80% | inhibition at 300 g/ha (KCHSC (kochia)): 80% | inhibition at 900 g/ha (KCHSC (kochia)): 100% | inhibition at 10 g/ha (SETVI (green foxtail)): 50% | inhibition at 30 g/ha (SETVI (green foxtail)): 60% | inhibition at 100 g/ha (SETVI (green foxtail)): 100% | inhibition at 300 g/ha (SETVI (green foxtail)): 100% | inhibition at 900 g/ha (SETVI (green foxtail)): 100% | PPI activity GR80, SETVI (SETVI (green foxtail)): 30 g/ha | Pre-emergence activity (GR80) AMARE (AMARE (redroot pigweed)): * (activity observed, at least at highest rate, but <80% inhibition) | Pre-emergence activity (GR80) DATST (DATST (jimsonweed)): * (activity observed, at least at highest rate, but <80% inhibition) | PPI activity GR80, VERPE [2]: [empty] | inhibition at 10 g/ha [2]: 0% | inhibition at 30 g/ha [2]: 40% | inhibition at 100 g/ha [2]: 20% | inhibition at 300 g/ha [2]: 20% | inhibition at 900 g/ha [2]: 99% | Pre-emergence activity (GR80) AGSST [4]: 30 g/ha | inhibition at 10 g/ha [5]: 85% | inhibition at 30 g/ha [5]: 100% | inhibition at 100 g/ha [5]: 100% | inhibition at 300 g/ha [5]: 50% | inhibition at 900 g/ha [5]: 100% | PPI activity GR80, GALAP [5]: 100 g/ha | PPI activity (GR80) CIRAR [6]: 300 g/ha | inhibition at 10 g/ha (ABUTH (velvetleaf) [7]): 0% | inhibition at 30 g/ha (ABUTH (velvetleaf) [7]): 0% | inhibition at 100 g/ha (ABUTH (velvetleaf) [7]): 0% | inhibition at 300 g/ha (ABUTH (velvetleaf) [7]): 0% | inhibition at 900 g/ha (ABUTH (velvetleaf) [7]): 60% | PPI activity (GR80) ABUTH (ABUTH (velvetleaf) [7]): 30 g/ha
